Results as given in PMC6825221, “In silico re-engineering of a neurotransmitter to activate KCNQ potassium channels in an isoform-specific manner” (Communications Biology, 2019).
“And” between values parts separate entries of the source, which are not always exact repeats. Equal values may be shown once.

Columns and labels:
[1] = molecular target: T1, GLRA1 (Homo sapiens, UniProt P23415); assay: TEVC of glycine receptor GLRA1 expressed in Xenopus oocytes; format: cell-based
T1 sequence (P23415 29-457): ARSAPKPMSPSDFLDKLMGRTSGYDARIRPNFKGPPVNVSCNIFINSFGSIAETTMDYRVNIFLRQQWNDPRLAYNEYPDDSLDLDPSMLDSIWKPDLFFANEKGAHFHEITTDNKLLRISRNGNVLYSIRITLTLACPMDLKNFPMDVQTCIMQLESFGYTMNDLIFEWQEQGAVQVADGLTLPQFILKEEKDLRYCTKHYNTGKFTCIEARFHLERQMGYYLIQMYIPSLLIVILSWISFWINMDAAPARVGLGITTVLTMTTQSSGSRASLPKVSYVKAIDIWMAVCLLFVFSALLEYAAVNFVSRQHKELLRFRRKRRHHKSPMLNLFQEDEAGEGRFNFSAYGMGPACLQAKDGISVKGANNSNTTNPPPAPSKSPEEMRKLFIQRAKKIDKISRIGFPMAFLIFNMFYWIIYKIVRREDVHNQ
Source text: (§1) We generated cRNA transcripts encoding human KCNQ1, KCNQ2, KCNQ3, KCNQ4, KCNQ5 or GLRA1 (NM_001146040) (GenScript, Piscataway, NJ, USA) by in vitro transcription using the T7 polymerase mMessage mMachine kit (Thermo Fisher Scientific), after vector linearization, from cDNA sub-cloned into plasmids incorporating Xenopus laevis β-globin 5′ and 3′ UTRs flanking the coding region to enhance translation and cRNA stability. We quantified cRNA by spectrophotometry. We generated mutant KCNQ2 and KCNQ3 cDNAs by site-directed mutagenesis using a QuikChange kit (Stratagene, San Diego, CA) and prepared the corresponding cRNAs as above. We injected defolliculated stage V and VI Xenopus laevis oocytes (Ecocyte Bioscience, Austin, TX and Xenoocyte, Dexter, MI) with KCNQ channel α subunit (5-20 ng) or GLRA1 (20 ng) cRNAs. We incubated the oocytes at 16 °C in Barth’s saline solution (Ecocyte Bioscience) containing penicillin and streptomycin, with daily washing, for 2–5 days prior to two-electrode voltage-clamp (TEVC) recording.
(§2) We performed TEVC at room temperature using an OC-725C amplifier (Warner Instruments, Hamden, CT) and pClamp10 software (Molecular Devices, Sunnyvale, CA) 2–5 days after cRNA injection as described in the section above. For recording, oocytes were placed in a small-volume oocyte bath (Warner) and viewed them with a dissection microscope. Chemicals were sourced from Sigma, Matrix Scientific and Santa Cruz. […] All stock solutions were diluted in bath solution on the day of experiments. KCNQ2/3 channel activation was screened for using either 30 µM or 100 µM concentrations of each of the six compounds, then dose responses were conducted as appropriate. Bath solution was (in mM): 96 NaCl, 4 KCl, 1 MgCl2, 1 CaCl2, 10 HEPES (pH 7.6). Compounds were introduced into the oocyte recording bath by gravity perfusion at a constant flow of 1 ml per minute for 3 min prior to recording. Pipettes were of 1–2 MΩ resistance when filled with 3 M KCl. Currents were recorded in response to voltage pulses between −120 or −80 mV and + 40 mV at 20 mV intervals from a holding potential of −80 mV, to yield current-voltage relationships, current magnitude, and for quantifying activation rate. We analyzed data using Clampfit (Molecular Devices) and Graphpad Prism software (GraphPad, San Diego, CA, USA); values are stated as mean ± SEM. We plotted raw or normalized tail currents versus prepulse voltage and fitted with a single Boltzmann function:1 g=(A1−A2)/1+exp(V12−V)∕VS+A2, where g is the normalized tail conductance, A1 is the initial value at −∞, A2 is the final value at +∞, V1/2 is the half-maximal voltage of activation and Vs the slope factor. Activation, deactivation, wash-in and washout kinetics were fitted with single exponential functions to yield a τ value.

[2] = molecular target: KCNQ2/3 (Homo sapiens, UniProt O43525+O43526); assay: TEVC of KCNQ2/3 channels expressed in Xenopus oocytes; format: cell-based
Source text: as §1, with “We generated mutant KCNQ2 and KCNQ3 cDNAs by site-directed mutagenesis using a QuikChange kit (Stratagene, San Diego, CA) and prepared the corresponding cRNAs as above.” left out
as §2, with “For” for “We performed TEVC at room temperature using an OC-725C amplifier (Warner Instruments, Hamden, CT) and pClamp10 software (Molecular Devices, Sunnyvale, CA) 2–5 days after cRNA injection as described in the section above. For”

[3] = molecular target: T2, KCNQ2 (Homo sapiens, UniProt O43526); assay: [3H]GABA binding and competition, oocytes expressing KCNQ2; conditions: 100 µM
[4] = molecular target: KCNQ3* (Homo sapiens, UniProt O43525, A315T); assay: [3H]GABA binding and competition, oocytes expressing KCNQ3*; conditions: 100 µM
[5] = molecular target: T2, KCNQ2; assay: TEVC of homomeric KCNQ2 expressed in Xenopus oocytes; format: cell-based
Source text: as §1, with “We generated mutant KCNQ2 and KCNQ3 cDNAs by site-directed mutagenesis using a QuikChange kit (Stratagene, San Diego, CA) and prepared the corresponding cRNAs as above.” left out
as §2, with “For” for “We performed TEVC at room temperature using an OC-725C amplifier (Warner Instruments, Hamden, CT) and pClamp10 software (Molecular Devices, Sunnyvale, CA) 2–5 days after cRNA injection as described in the section above. For”

[6] = 100 µM, −60 mV, single exponential fit

KCNQ2/3, sequence (O43525 whole entry): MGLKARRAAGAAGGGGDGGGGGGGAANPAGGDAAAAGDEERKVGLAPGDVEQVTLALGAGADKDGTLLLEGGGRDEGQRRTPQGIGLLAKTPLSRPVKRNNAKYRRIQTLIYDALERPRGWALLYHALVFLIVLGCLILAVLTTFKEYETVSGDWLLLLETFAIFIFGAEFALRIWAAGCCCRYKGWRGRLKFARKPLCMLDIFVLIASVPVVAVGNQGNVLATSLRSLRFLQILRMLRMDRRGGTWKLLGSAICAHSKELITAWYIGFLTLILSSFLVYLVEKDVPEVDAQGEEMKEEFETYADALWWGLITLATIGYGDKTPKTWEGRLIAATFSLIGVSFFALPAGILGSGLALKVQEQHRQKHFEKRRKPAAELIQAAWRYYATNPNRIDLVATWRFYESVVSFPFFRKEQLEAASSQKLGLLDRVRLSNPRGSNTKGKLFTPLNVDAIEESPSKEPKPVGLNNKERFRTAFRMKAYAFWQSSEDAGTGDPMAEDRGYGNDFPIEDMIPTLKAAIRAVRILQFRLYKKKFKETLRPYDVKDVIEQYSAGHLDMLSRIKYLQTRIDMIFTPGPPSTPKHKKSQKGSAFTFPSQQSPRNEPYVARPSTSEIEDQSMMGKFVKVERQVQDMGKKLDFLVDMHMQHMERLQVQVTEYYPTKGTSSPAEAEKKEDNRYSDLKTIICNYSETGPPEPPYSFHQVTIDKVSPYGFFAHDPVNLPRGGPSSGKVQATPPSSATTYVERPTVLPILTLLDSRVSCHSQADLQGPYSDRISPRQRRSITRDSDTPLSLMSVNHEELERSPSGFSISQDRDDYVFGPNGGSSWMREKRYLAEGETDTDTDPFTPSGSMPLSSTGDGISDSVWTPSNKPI
KCNQ2/3, sequence (O43526 whole entry): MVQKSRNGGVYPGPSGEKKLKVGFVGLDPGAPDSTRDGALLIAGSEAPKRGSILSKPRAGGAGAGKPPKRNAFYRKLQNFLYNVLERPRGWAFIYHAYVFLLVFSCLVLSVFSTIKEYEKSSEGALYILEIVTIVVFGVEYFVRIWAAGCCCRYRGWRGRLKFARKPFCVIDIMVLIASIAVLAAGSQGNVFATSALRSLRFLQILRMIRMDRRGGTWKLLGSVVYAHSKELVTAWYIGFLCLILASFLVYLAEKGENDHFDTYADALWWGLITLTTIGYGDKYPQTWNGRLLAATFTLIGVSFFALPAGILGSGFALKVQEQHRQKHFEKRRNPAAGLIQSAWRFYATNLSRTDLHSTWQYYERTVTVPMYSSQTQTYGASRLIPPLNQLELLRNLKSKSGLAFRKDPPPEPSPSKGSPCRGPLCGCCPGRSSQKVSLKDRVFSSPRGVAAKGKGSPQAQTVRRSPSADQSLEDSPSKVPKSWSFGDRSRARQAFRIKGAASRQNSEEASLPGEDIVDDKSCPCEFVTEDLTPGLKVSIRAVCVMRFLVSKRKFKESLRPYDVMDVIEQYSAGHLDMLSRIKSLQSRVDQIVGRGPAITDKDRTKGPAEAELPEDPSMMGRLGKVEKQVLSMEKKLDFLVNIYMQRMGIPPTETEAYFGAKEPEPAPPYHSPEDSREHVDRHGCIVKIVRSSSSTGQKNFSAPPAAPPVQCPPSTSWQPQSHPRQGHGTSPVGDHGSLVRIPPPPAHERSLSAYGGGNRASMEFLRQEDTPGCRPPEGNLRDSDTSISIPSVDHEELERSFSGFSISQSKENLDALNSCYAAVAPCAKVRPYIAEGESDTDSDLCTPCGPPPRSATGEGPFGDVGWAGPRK

- inhibition of glycine-activated GLRA1 ([1]; 100 µM, 1 mM glycine): 35-40% and ~ 40%
- activation of GLRA1 ([1]; 1 mM, compound alone): Neither compound activated GLRA1
- inhibition of the activation of GLRA1 by 1 mM glycine ([1]; each at 100 µM): partially inhibited
- tau of KCNQ2/3 current decrease during washout [2, 6]: 40 s and 39 ± 10 s
- tau of KCNQ2/3 current increase during wash-in [2, 6]: ~ 15 s and 15 ± 3 s
- increase in KCNQ2/3 current at −60 mV ([2]; either compound alone, 1 uM): ~ fivefold
- EC50 ([2]; shift in voltage dependence of activation (ΔV0.5act), TEVC in oocytes, read-out: EC50, KCNQ2/3 activation): 51 ± 21 nM
- competition of GABA binding to KCNQ2 [3]: able to compete out GABA binding
- competition of GABA binding to KCNQ3* [4]: able to compete out GABA binding
- effect of a tenfold excess (100 µM) on KCNQ2 activation by 2FPG (10 µM) [5]: subtly reduced the efficacy of 2FPG
- effects on KCNQ2 ([5]; dose response): negligible or much less potent effects
Compound: CS(=O)(=O)N(CC(=O)O)c1cccc(F)c1 [3FMSG]
- KCNQ2/3 activation and deactivation rates ([2]; 100 µM, single exponential fit (τ)): speeded KCNQ2/3 activation and slowed its deactivation
